In patent US20160235727A1, “NOVEL PYRROLIDINE DERIVED BETA 3 ADRENERGIC RECEPTOR AGONISTS” (Merck Sharp & Dohme Corp., priority 2013, published 2016):

Target: T1, human β3-AR (Homo sapiens, UniProt P13945)
T1 construct: expressed in transfected cells; host or cells: CHO (Chinese hamster ovary) cells, stably transfected
Experiment: cAMP functional agonist assay (LANCE TR-FRET) in CHO cells expressing cloned human β3-AR
Format: cell-based
Conditions: for EC50: CHO cells stably expressing cloned human β3-adrenoceptor, cAMP release, read-out: Human β3-AR Agonism EC50; for Fold drop in potency vs. 2-chloropyridine analog: EC50 of comparative example divided by EC50 of corresponding 2-chloropyridine compound; for Human β3-AR Agonist Activity (%): percent maximum activation relative to isoproterenol
Experimental: The ability of compounds to activate the human β3-AR receptor was measured using a CHO cell line stably expressing the cloned human β1-, β2-, and β3-adrenoceptors (β-AR). […] To quantify the amount of cAMP released following β-AR activation, the LANCE cAMP kit (Perking Elmer), a time-resolved fluorescence resonance energy transfer immunoassay, was used. Compounds were serially diluted in DMSO and an aliquot added to either 384-well or 96-well micro titer plates in assay buffer (5 mM HEPES, 0.1% BSA in Hank's Balanced Salt Solution). […] Following 30 min incubation at room temperature, the cells were lysed by the addition of LANCE detection buffer which contained a europium-labeled cAMP tracer. Fluorescence was measured following one hour incubation at room temperature using a Perking Elmer Envision plate reader, exciting at 340 nm and measuring emission at 615 nm and 665 nm. For each assay, a cAMP standard curve was included and used to convert fluorescence readings directly to cAMP amounts. The values were then normalized to isoproterenol, a known full agonist of β-AR, which was titrated in every assay and the EC50 determined using a custom in-house data analysis package. Along with EC50, the percent maximum activation relative to isoproterenol is reported.
The cAMP production is measured using a homogenous time-resolved fluorescence resonance energy transfer immunoassay (LANCE™, Perkin Elmer) according to the manufacture's instructions. Chinese hamster ovary (CHO) cells, stably transfected with the cloned β-adrenergic receptor (β1, β2 or β3) are harvested after 3 days of subculturing. Harvesting of cells is done with Enzyme-free Dissociation Media (Specialty Media). Cells are then counted and resuspended in assay buffer (Hank's Balanced salt solution supplemented with 5 mM HEPES, […]) containing a phosphodiesterase inhibitor (IBMX, 0.6 mM). The reaction is initiated by mixing 6,000 cells in 6 μL with 6 μL Alexa Fluor labeled cAMP antibody (LANCE™ kit) which is then added to an assay well containing 12 μL of compound (diluted in assay buffer to 2× final concentration). The reaction proceeds for 30 minutes at RT and is terminated by the addition of 24 ul detection buffer (LANCE™ kit). The assay plate is then incubated for 1 h at RT and time-resolved fluorescence measured on a Perkin Elmer Envision reader or equivalent. The unknown cAMP level is determined by comparing fluorescence levels to a cAMP standard curve.
The non-selective, full agonist β-adrenergic ligand isoproterenol is used at all three receptors to determine maximal stimulation. […] Data are analyzed using Microsoft Excel and Graphpad Prism or an internally developed data analysis software package. […]

T1 sequence (P13945 whole entry): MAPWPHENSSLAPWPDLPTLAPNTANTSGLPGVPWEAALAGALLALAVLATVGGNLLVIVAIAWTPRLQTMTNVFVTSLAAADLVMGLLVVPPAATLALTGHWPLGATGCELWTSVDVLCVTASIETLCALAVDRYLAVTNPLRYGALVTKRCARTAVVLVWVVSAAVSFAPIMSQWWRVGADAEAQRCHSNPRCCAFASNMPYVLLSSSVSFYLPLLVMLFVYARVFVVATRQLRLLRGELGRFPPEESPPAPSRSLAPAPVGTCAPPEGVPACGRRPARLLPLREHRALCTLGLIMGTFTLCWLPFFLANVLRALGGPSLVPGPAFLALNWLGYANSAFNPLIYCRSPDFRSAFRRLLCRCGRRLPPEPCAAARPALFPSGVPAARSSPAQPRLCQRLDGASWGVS

SMILES	EC50 [nM]	Fold drop in potency vs. 2-chloropyridine analog [fold]	Human β3-AR Agonist Activity (%)
CN(Cc1cc(C2CC2)[nH]n1)C(=O)c1ccc(C[C@@H]2CC[C@H]([C@H](O)c3ccccc3)N2)cc1 [Example 8-B, N-((5-cyclopropyl-1H-pyrazol-3-yl)methyl)-4-(((2S,5R)-5-((R)-hydroxy(phenyl)methyl)pyrrolidin-2-yl)methyl)-N-methylbenzamide]	39	2.0	103
COCc1cc(CN(C)C(=O)c2ccc(C[C@@H]3CC[C@H]([C@H](O)c4ccc(Cl)nc4)N3)cc2)n[nH]1 [Example 9-A, 4-(((2S,5R)-5-((R)-(6-chloropyridin-3-yl)(hydroxy)methyl)pyrrolidin-2-yl)methyl)-N-((5-(methoxymethyl)-1H-pyrazol-3-yl)methyl)-N-methylbenzamide]	3	–	93
COCc1cc(CN(C)C(=O)c2ccc(C[C@@H]3CC[C@H]([C@H](O)c4ccc(Cl)cc4)N3)cc2)n[nH]1 [Example 9-G, 4-(((2S,5R)-5-((R)-(4-chlorophenyl)(hydroxy)methyl)pyrrolidin-2-yl)methyl)-N-((5-(methoxymethyl)-1H-pyrazol-3-yl)methyl)-N-methylbenzamide]	4	1.6	97
CN(Cc1cc(C(F)(F)F)[nH]n1)C(=O)c1ccc(C[C@@H]2CC[C@H]([C@H](O)c3ccccc3)N2)cc1 [Example 10-B, 4-(((2S,5R)-5-((R)-hydroxy(phenyl)methyl)pyrrolidin-2-yl)methyl)-N-methyl-N-((5-(trifluoromethyl)-1H-pyrazol-3-yl)methyl)benzamide]	5	3.2	110
CN(Cc1cc(C(F)(F)F)[nH]n1)C(=O)c1ccc(C[C@@H]2CC[C@H]([C@H](O)c3cccnc3)N2)cc1 [Example 10-H, 4-(((2S,5R)-5-((R)-hydroxy(pyridin-3-yl)methyl)pyrrolidin-2-yl)methyl)-N-methyl-N-((5-(trifluoromethyl)-1H-pyrazol-3-yl)methyl)benzamide]	22	13.9	98
CN(Cc1n[nH]c2c1CCC2)C(=O)c1ccc(C[C@@H]2CC[C@H]([C@H](O)c3ccc(Cl)nc3)N2)cc1 [Example 13-A, 4-(((2S,5R)-5-((R)-(6-chloropyridin-3-yl)(hydroxy)methyl)pyrrolidin-2-yl)methyl)-N-methyl-N-((1,4,5,6-tetrahydrocyclopenta[c]pyrazol-3-yl)methyl)benzamide]	2	–	99
CN(Cc1n[nH]c2c1CCC2)C(=O)c1ccc(C[C@@H]2CC[C@H]([C@H](O)c3ccccc3)N2)cc1 [Example 13-B, 4-(((2S,5R)-5-((R)-hydroxy(phenyl)methyl)pyrrolidin-2-yl)methyl)-N-methyl-N-((1,4,5,6-tetrahydrocyclopenta[c]pyrazol-3-yl)methyl)benzamide]	3	1.5	113
CN(Cc1n[nH]c2c1CCCC2)C(=O)c1ccc(C[C@@H]2CC[C@H]([C@H](O)c3ccc(Cl)nc3)N2)cc1 [Example 14-A, 4-(((2S,5R)-5-((R)-(6-chloropyridin-3-yl)(hydroxy)methyl)pyrrolidin-2-yl)methyl)-N-methyl-N-((4,5,6,7-tetrahydro-1H-indazol-3-yl)methyl)benzamide]	3	–	108
CN(Cc1n[nH]c2c1CCCC2)C(=O)c1ccc(C[C@@H]2CC[C@H]([C@H](O)c3cccnc3)N2)cc1 [Example 14-H, 4-(((2S,5R)-5-((R)-hydroxy(pyridin-3-yl)methyl)pyrrolidin-2-yl)methyl)-N-methyl-N-((4,5,6,7-tetrahydro-1H-indazol-3-yl)methyl)benzamide]	55	19.5	101
Cc1[nH]nc(CN(C)C(=O)c2ccc(C[C@@H]3CC[C@H]([C@H](O)c4ccc(Cl)nc4)N3)cc2)c1O [Example 15-A, 4-(((2S,5R)-5-((R)-(6-chloropyridin-3-yl)(hydroxy)methyl)pyrrolidin-2-yl)methyl)-N-((4-hydroxy-5-methyl-1H-pyrazol-3-yl)methyl)-N-methylbenzamide]	1	–	94

Continued by falling EC50, values first:

EC50 [nM]	Fold drop in potency vs. 2-chloropyridine analog [fold]	Human β3-AR Agonist Activity (%)	SMILES
108	39.6	76	COCc1cc(CN(C)C(=O)c2ccc(C[C@@H]3CC[C@H]([C@H](O)c4ccc(OC(F)F)cc4)N3)cc2)n[nH]1 [Example 9-E, 4-(((2S,5R)-5-((R)-(4-(difluoromethoxy)phenyl)(hydroxy)methyl)pyrrolidin-2-yl)methyl)-N-((5-(methoxymethyl)-1H-pyrazol-3-yl)methyl)-N-methylbenzamide]
104	38.1	101	COCc1cc(CN(C)C(=O)c2ccc(C[C@@H]3CC[C@H]([C@H](O)c4cccnc4)N3)cc2)n[nH]1 [Example 9-H, 4-(((2S,5R)-5-((R)-hydroxy(pyridin-3-yl)methyl)pyrrolidin-2-yl)methyl)-N-((5-(methoxymethyl)-1H-pyrazol-3-yl)methyl)-N-methylbenzamide]
26	4.0	116	CCOc1cc(CN(C)C(=O)c2ccc(C[C@@H]3CC[C@H]([C@H](O)c4ccccc4)N3)cc2)n[nH]1 [Example 11-B, N-((5-ethoxy-1H-pyrazol-3-yl)methyl)-4-(((2S,5R)-5-((R)-hydroxy(phenyl)methyl)pyrrolidin-2-yl)methyl)-N-methylbenzamide]
18	1.5	120	CCc1[nH]nc(CN(C)C(=O)c2ccc(C[C@@H]3CC[C@H]([C@H](O)c4ccccc4)N3)cc2)c1C [Example 12-B, N-((5-ethyl-4-methyl-1H-pyrazol-3-yl)methyl)-4-(((2S,5R)-5-((R)-hydroxy (phenyl)methyl)pyrrolidin-2-yl)methyl)-N-methylbenzamide]
15	5.5	102	COCc1cc(CN(C)C(=O)c2ccc(C[C@@H]3CC[C@H]([C@H](O)c4ccccc4)N3)cc2)n[nH]1 [Example 9-B, 4-(((2S,5R)-5-((R)-hydroxy(phenyl)methyl)pyrrolidin-2-yl)methyl)-N-((5-(methoxymethyl)-1H-pyrazol-3-yl)methyl)-N-methylbenzamide]
13	–	95	CCc1[nH]nc(CN(C)C(=O)c2ccc(C[C@@H]3CC[C@H]([C@H](O)c4ccc(Cl)nc4)N3)cc2)c1C [Example 12-A, 4-(((2S,5R)-5-((R)-(6-chloropyridin-3-yl)(hydroxy)methyl)pyrrolidin-2-yl)methyl)-N-((5-ethyl-4-methyl-1H-pyrazol-3-yl)methyl)-N-methylbenzamide]
7	–	95	CCOc1cc(CN(C)C(=O)c2ccc(C[C@@H]3CC[C@H]([C@H](O)c4ccc(Cl)nc4)N3)cc2)[nH]n1 [Example 11-A, 4-(((2S,5R)-5-((R)-(6-chloropyridin-3-yl)(hydroxy)methyl)pyrrolidin-2-yl)methyl)-N-((5-ethoxy-1H-pyrazol-3-yl)methyl)-N-methylbenzamide]
5	5.9	112	Cc1[nH]nc(CN(C)C(=O)c2ccc(C[C@@H]3CC[C@H]([C@H](O)c4ccccc4)N3)cc2)c1O [Example 15-B, 4-(((2S, 5R)-5-((R)-hydroxy(phenyl)methyl)pyrrolidin-2-yl)methyl)-N-((4-hydroxy-5-methyl-1H-pyrazol-3-yl)methyl)-N-methylbenzamide]
2	–	96	CN(Cc1cc(C(F)(F)F)[nH]n1)C(=O)c1ccc(C[C@@H]2CC[C@H]([C@H](O)c3ccc(Cl)nc3)N2)cc1 [Example 10-A, 4-(((2S,5R)-5-((R)-(6-chloropyridin-3-yl)(hydroxy)methyl)pyrrolidin-2-yl)methyl)-N-methyl-N-((5-(trifluoromethyl)-1H-pyrazol-3-yl)methyl)benzamide]
